Measured values from ChEMBL document CHEMBL1201862, “PubChem BioAssay data set” (2004).
Calls of active or inactive are those of the source. Cut-off read from the data, not from the text of the source, for most assays here: actives have a measured IC50 and inactives only a lower limit.

Legend:
[1] = biological target: DNA dC->dU-editing enzyme APOBEC-3G (Homo sapiens, UniProt Q9HC16); experiment: Dose Response confirmation of small molecule APOBEC3G DNA Deaminase Inhibitors via a fluorescence-based single-stranded DNA deaminase assay. [Related pubchem assays (depositor defined):AID493012, AID493028]; type: functional
[2] = biological target: DNA dC->dU-editing enzyme APOBEC-3A (Homo sapiens, UniProt P31941); experiment: APOBEC3A DNA deaminase inhibitors, dose response, biochemical (AID 504722); type: functional
[3] = test system: HEK293; experiment: cells; settings: Homo sapiens;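 note: cells exposed to compound for 14 hours overnight before viability readout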
[4] = biological target: Nucleotide-binding oligomerization domain-containing protein 2 (Homo sapiens, UniProt Q9HC29); experiment: PubChem AID 2334; type: functional
[5] = biological target: T1, Nucleotide-binding oligomerization domain-containing protein 1 (Homo sapiens, UniProt Q9Y239); experiment: NOD1 signaling inhibitors, SAR follow-up, revised (AID 2333); type: functional
T1 sequence (Q9Y239 whole entry): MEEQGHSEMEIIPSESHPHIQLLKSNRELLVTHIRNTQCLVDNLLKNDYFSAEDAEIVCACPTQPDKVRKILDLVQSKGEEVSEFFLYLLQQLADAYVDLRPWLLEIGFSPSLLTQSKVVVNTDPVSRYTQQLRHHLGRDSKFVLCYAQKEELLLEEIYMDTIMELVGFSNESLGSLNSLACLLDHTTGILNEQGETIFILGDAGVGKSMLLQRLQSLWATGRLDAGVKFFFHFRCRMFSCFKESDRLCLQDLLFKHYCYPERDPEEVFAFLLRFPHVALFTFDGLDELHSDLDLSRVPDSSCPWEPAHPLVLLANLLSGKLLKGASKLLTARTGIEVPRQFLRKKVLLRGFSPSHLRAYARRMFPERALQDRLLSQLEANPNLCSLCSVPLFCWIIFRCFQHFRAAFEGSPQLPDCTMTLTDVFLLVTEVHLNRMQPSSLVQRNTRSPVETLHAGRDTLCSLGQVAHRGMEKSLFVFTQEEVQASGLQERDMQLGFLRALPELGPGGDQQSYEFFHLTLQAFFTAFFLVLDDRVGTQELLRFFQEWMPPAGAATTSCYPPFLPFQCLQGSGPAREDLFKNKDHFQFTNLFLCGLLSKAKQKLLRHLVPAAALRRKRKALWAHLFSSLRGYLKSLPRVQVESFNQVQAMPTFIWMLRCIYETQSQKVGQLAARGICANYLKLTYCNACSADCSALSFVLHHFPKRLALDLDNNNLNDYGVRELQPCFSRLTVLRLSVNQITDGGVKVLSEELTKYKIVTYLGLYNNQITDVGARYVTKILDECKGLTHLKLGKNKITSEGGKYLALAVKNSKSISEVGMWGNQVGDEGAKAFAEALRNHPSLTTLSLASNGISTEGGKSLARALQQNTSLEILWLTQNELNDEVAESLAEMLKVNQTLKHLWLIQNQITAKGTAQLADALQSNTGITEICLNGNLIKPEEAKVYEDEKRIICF

[6] = biological target: Tumor necrosis factor (Homo sapiens, UniProt P01375); experiment: TNFa-triggered NF-kB activation inhibitors, SAR follow-up, cell-based, revised (AID 2337); type: functional
[7] = biological target: Wee1-like protein kinase (Homo sapiens, UniProt P30291); experiment: G2/M cell cycle arrest in HeLa, late-stage follow-up, mechanism study for Wee1 degradation inhibitor project, FACS, panel member Wee1 Degradation (AID 2088)
[8] = biological target: G2/mitotic-specific cyclin-B1 (Homo sapiens, UniProt P14635); experiment: G2/M cell cycle arrest in HeLa, late-stage follow-up, mechanism study for Wee1 degradation inhibitor project, FACS, panel member Cyclin B Degradation (AID 2088)
[9] = biological target: Cyclin-dependent kinase 5/CDK5 activator 1 (Homo sapiens, UniProt Q00535); experiment: CDK5/p35 kinase inhibitors, dose response, biochemical, cherry-picked samples, set 2 (AID 504545)
[10] = biological target: T2, Corticotropin-releasing factor receptor 2/Corticotropin-releasing factor-binding protein (Homo sapiens, UniProt P24387+Q13324); experiment: Dose Response confirmation of uHTS hits for small molecule antagonists of the CRF-binding protein and CRF-R2 receptor complex.; type: functional; settings: read-out: IC50_Mean
T2 sequence (Q13324 whole entry): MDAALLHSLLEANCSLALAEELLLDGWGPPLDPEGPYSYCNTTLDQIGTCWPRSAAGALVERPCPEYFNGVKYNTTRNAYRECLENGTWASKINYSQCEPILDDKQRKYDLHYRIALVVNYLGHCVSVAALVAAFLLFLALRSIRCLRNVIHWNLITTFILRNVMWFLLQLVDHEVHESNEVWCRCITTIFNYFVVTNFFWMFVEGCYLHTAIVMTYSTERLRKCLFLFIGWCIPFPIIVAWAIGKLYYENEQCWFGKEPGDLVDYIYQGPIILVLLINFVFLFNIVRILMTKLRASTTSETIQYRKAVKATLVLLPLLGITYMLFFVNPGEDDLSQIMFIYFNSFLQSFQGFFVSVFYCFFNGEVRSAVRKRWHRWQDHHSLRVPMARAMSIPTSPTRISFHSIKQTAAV
T2 sequence (P24387 whole entry): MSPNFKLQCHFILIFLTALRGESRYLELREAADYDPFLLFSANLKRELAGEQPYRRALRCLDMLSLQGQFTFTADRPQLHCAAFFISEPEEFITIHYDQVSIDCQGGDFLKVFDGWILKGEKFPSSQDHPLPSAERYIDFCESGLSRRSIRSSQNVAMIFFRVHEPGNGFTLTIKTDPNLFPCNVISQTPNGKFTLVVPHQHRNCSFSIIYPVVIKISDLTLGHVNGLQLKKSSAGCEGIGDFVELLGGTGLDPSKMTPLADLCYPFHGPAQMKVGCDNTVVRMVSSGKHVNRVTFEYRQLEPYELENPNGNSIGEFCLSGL

[11] = biological target: T2, Corticotropin-releasing factor receptor 2/Corticotropin-releasing factor-binding protein; experiment: activators of CRF receptor 2 with binding protein – uHTS hits, confirmation (AID 602473); type: functional; settings: read-out: EC50_Mean
[12] = biological target: Melanin-concentrating hormone receptor 1 (Homo sapiens, UniProt Q99705); experiment: Late-stage fluorescence-based counterscreen for antagonists of the G-protein coupled receptor 7 (GPR7): cell-based dose response assay to identify antagonists of the melanin-concentrating hormone receptor 1 (MCHR1). [Related pubchem assays (depositor defined):AID1861, AID1880, AID1952, AID2148, AID2251, AID2257, AID485339]; type: functional;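 note: stimulated with 30 nM MCH peptide agonist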
Sequence of Melanin-concentrating hormone receptor 1 (Q99705 whole entry): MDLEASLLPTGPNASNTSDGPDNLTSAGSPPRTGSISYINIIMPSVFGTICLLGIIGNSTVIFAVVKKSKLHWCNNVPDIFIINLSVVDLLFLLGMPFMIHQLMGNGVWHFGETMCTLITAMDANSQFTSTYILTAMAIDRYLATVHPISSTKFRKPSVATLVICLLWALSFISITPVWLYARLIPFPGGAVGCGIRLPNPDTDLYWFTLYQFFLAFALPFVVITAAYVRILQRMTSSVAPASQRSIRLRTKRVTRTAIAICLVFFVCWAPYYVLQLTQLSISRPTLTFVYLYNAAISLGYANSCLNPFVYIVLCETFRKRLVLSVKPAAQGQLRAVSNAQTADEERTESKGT

Sequence of DNA dC->dU-editing enzyme APOBEC-3G (Q9HC16 whole entry): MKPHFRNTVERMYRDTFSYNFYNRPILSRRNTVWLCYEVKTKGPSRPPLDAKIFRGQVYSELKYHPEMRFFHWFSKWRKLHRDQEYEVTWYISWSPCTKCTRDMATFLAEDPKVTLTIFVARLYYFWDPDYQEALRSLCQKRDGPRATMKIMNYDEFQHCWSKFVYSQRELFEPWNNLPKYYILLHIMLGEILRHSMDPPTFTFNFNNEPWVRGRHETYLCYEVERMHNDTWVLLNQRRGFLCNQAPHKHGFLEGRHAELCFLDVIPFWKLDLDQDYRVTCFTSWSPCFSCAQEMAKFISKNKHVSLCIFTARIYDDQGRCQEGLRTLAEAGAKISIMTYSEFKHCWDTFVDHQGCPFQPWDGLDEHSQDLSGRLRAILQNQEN
Sequence of Cyclin-dependent kinase 5/CDK5 activator 1 (Q00535 whole entry): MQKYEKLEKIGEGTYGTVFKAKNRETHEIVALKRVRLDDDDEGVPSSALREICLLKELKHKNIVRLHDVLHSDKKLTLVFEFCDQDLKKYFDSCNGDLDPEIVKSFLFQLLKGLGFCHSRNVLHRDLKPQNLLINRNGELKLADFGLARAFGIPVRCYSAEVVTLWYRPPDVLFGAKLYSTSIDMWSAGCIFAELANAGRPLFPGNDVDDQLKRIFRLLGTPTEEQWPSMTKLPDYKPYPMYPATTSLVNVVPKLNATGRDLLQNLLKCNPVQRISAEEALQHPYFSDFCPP
Sequence of Cyclin-dependent kinase 5/CDK5 activator 1 (Q15078 whole entry, further chain): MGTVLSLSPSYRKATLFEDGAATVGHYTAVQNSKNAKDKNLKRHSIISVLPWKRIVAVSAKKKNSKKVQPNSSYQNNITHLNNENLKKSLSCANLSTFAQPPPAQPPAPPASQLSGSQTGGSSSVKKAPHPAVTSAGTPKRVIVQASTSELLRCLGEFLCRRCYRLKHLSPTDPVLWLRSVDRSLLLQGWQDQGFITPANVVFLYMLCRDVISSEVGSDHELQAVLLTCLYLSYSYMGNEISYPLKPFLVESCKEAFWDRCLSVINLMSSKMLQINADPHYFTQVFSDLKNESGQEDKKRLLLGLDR
Sequence of DNA dC->dU-editing enzyme APOBEC-3A (P31941 whole entry): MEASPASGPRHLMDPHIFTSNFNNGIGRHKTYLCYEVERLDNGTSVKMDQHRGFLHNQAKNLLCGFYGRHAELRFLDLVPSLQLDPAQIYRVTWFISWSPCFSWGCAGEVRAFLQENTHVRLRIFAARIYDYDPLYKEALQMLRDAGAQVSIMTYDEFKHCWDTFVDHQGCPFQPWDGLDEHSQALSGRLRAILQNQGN
Sequence of Wee1-like protein kinase (P30291 whole entry): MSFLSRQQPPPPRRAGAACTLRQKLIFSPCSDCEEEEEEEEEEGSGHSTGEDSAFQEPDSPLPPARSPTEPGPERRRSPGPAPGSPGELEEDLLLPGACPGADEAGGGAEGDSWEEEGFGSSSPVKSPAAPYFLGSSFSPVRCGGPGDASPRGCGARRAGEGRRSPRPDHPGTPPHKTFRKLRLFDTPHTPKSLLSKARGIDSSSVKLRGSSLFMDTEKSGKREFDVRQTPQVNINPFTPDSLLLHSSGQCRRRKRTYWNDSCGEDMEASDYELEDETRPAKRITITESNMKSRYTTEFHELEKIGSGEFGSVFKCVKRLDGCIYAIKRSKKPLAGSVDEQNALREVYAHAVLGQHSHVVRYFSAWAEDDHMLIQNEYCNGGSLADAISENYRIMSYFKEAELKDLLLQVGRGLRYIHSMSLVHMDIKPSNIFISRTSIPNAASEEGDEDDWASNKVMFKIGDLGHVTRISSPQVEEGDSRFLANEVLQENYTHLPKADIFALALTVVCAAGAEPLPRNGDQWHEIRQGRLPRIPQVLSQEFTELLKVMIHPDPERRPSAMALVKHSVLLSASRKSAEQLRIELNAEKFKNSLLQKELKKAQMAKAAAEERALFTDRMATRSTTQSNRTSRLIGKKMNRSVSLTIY
Sequence of Tumor necrosis factor (P01375 whole entry): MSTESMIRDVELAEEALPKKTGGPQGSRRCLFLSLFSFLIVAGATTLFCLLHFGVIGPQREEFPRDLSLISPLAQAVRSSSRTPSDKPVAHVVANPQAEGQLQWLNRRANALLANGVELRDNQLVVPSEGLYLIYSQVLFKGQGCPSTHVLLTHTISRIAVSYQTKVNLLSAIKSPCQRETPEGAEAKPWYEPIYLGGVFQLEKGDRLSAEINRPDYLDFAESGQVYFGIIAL
Sequence of G2/mitotic-specific cyclin-B1 (P14635 whole entry): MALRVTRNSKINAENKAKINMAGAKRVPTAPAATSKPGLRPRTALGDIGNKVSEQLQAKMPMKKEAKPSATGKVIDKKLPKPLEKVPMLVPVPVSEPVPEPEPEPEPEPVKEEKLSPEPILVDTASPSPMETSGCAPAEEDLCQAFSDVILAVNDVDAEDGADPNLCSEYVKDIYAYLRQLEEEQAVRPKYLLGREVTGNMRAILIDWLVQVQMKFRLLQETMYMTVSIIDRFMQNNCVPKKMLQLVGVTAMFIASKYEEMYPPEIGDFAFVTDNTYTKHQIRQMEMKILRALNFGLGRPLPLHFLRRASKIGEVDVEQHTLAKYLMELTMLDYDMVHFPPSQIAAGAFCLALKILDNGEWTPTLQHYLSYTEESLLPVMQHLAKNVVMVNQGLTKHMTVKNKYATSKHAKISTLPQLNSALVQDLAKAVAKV
Sequence of Nucleotide-binding oligomerization domain-containing protein 2 (Q9HC29 whole entry, the tested form may be a part): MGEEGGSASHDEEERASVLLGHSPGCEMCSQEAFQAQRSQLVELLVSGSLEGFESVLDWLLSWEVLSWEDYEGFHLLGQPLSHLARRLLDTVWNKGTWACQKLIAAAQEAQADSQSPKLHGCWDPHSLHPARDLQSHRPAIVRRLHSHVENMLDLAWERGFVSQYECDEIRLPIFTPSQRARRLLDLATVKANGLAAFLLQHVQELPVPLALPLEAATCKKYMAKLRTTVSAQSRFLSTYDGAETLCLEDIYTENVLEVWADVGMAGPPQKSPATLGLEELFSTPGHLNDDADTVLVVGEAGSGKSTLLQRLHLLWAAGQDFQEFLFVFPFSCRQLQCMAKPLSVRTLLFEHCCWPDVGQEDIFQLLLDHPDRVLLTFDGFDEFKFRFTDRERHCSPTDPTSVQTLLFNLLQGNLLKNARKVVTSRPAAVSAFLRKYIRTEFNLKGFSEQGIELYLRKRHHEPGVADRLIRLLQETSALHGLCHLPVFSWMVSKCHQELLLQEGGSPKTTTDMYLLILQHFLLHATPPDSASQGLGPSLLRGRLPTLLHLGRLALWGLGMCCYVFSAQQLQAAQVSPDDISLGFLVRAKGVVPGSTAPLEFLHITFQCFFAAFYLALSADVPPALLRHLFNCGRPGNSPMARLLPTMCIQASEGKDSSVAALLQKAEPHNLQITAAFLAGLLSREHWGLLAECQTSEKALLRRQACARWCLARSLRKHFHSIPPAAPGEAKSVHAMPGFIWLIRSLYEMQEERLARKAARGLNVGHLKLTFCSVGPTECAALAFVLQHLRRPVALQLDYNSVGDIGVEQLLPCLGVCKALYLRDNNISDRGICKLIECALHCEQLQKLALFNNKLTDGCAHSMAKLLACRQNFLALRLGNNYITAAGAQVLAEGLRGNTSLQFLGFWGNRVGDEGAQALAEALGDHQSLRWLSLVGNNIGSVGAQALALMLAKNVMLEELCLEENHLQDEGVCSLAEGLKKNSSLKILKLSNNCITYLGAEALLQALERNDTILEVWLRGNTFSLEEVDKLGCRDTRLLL

Structure (SMILES): CN(CC(=O)Nc1nnc(S)s1)S(=O)(=O)c1cccc2cccnc12
- IC50 [1]: 1.95 µM (active)
- IC50 [2]: > 100 µM (inactive)

Structure (SMILES): Cc1cc(C(=O)NC2CCCc3c2cnn3-c2ccccc2F)n(Cc2ccc(F)cc2)n1 (configuration not stated)
- IC50 [3]: > 20 µM (inactive)
- IC50 [4]: > 20 µM (inactive)
- IC50 [5]: > 20 µM (inactive)
- IC50 [6]: > 20 µM (inactive)

Structure (SMILES): COc1ccc(C(=O)Nc2cc(C)nn2-c2nc(C)cc(O)n2)cc1
- EC50 [7]: > 49.7 µM (inactive)
- EC50 [8]: > 49.7 µM (inactive)

Structure (SMILES): Nc1ccc2c(c1)C(=NO)c1ccccc1-2
- AC50 [9]: 39.9 µM (active)
- IC50 [10]: > 47.1 µM (inactive)
- EC50 [11]: > 53 µM (inactive)

Structure (SMILES): COC(=O)c1cnn(-c2ccc(C(C)C)cc2)c(=O)c1Oc1ccc(OC)cc1
- IC50 [12]: 6.9 µM (active)
